Test results published in patent US20250109127A1, “METHODS OF USE OF PHENOXYPROPYLAMINE COMPOUNDS TO TREAT DEPRESSION” (Minerva Neurosciences, Inc., priority 2013, published 2025).
Where “and” joins values, the source holds several entries; their conditions need not be identical. Identical values can stand only once.

System: DOPAC release in the rat prefrontal cortex
Assay: Microdialysis: DOPAC release in prefrontal cortex after I.P. administration
Format: in vivo
Conditions: Citalopram 10 mg/kg I.P.
Protocol: The aim of the study was to evaluate, using microdialysis, the effects of an intraperitoneal (I.P.) administration in rats of three different doses of SON-117 on dopamine and its metabolites, serotonin and its metabolite (5-HIAA), and norepinephrine levels in prefrontal cortex.
Thirty-two adult male Wistar rats were used for the whole study (4 groups of eight animals planned for the study, Table 1).
Surgery was performed on rats weighing about 300 g at the beginning of the experiments. Rats were anaesthetized with Ketamine (50 mg/kg) & Xylazine (15 mg/kg) by intramuscular administration. The animals were placed in a stereotaxic apparatus in the flat-skull position at a constant setting of −3.3 mm between ear bars and the incisor bar. The animals were treated with a local anesthesic (xylocaine 1%, Astra Zeneca) and an analgesic (Temgesic, from Schering Plough, 0.05 mg/kg, s.c.). A rostrocaudal midline incision was made with a lancet to expose the dorsal skull surface. The “stereotaxic zero” was defined by the Bregma in accordance with Paxinos and Watson's atlas (1986). A hole was drilled in the skull with a drill and the meninges were pierced with a sterile needle to implant a CMA12 guide cannula which later received the dialysis probe.
Coordinates used for implanting guide cannula in prefrontal cortex from Bregma were anteroposterior 3.7 mm, mediolateral 0.8 mm, and dorsoventral −2 mm (top of the probe was at −5 mm). The guide cannula was fixed to the skull with two stainless steel screws (1.88 mm outside diameter) anchored. An application of dental cement was added. A plastic collar allowed each animal to be tethered to a Swivel assembly of the CMA 120 awake animal system. Following surgery, rats were kept in individual cages and allowed to recover for a minimum of 3-5 days before the experimentation. The rats were handled and put in plastic bowl for 10 min at least every day to habituate the animals to their new environment for the dialysis. An I.P. administration with saline was also performed every day.
Dialysis probes (CMA12/3 mm, membrane, 20 kD cut-off, Carnegie Medicine, Stockholm, Sweden), were carefully washed before inserting into the guide cannula. The wash was performed with the artificial cerebrospinal fluid (aCSF) medium (NaCl 147 mM, KCl 2.7 mM, CaCl2 1.2 mM, MgCl2 0.85 mM) at room temperature. The dialysis system was then equilibrated at 20° C. at a perfusion rate of 1 μl/min with a Carnegie pump (CMA100). All catheters (FEP tubing, internal volume of 1.2 μl/10 cm, and tubing adaptors) used for microdialysis were treated in the same conditions.
The probes duly prepared were inserted into the guide cannula and the CMA120 Swivel assembly secured to the animal using a plastic collar. Flow through the dialysis probe with aCSF was maintained at a rate of 1 μl/min during the whole experimentation. The first four fractions (corresponding to 2 hours) were discarded to avoid the effects of parenchymal disturbance and to ensure that an approximate steady-state level was reached. Fractions were then collected over a period of 8.5 h during which time the animals remained quiet. The dialysates were automatically collected with an autosampler (microfraction collector CMA 140, Carnegie Medicin) and stored at −80° C. until analysis. […] Perfusion was then maintained for 7 hours with aCSF. The dialysates (30 μl) were collected into 300 μl vials, transferred into dry ice and then kept frozen (−80° C.) until analysis. Frozen samples were shipped to a partner for analysis. At the end of the microdialysis study, a PBS with colored ink was perfused through the probe in order to visualize the dialyzed area.
Catecholamine assay: Concentrations of dopamine, DOPAC, HVA, 5-HIAA, 5-HT, and norepinephrin were determined for each sample by HPLC coupled with electrochemical detection.

Structure (SMILES): CN(C)CCCC1(c2ccc(F)cc2)OCc2cc(C#N)ccc21 (centres unmarked) [Citalopram, citalopram, reference compound]
- DOPAC in dialysate, MEAN (T0-T30 min): 92.52 % of respective basal
- DOPAC in dialysate, MEAN (T30-T1 h): 101.61 % of respective basal
- DOPAC in dialysate, individual animals (T30-T1 h): 108.24 % of respective basal and 101.84 % of respective basal and 110.81 % of respective basal and 140.94 % of respective basal and 90.86 % of respective basal and 86.64 % of respective basal and 74.29 % of respective basal and 104.04 % of respective basal
- DOPAC in dialysate, MEAN (T1 h 30-T2 h): 103.07 % of respective basal
- DOPAC in dialysate, individual animals (T1 h 30-T2 h): 97.22 % of respective basal and 94.96 % of respective basal and 95.81 % of respective basal and 121.29 % of respective basal and 99.84 % of respective basal and 90.48 % of respective basal and 98.93 % of respective basal and 130.18 % of respective basal
- DOPAC in dialysate, MEAN (T1 h-T1 h 30): 102.71 % of respective basal
- DOPAC in dialysate, individual animals (T1 h-T1 h 30): 108.8 % of respective basal and 86.27 % of respective basal and 95.17 % of respective basal and 138.08 % of respective basal and 88.43 % of respective basal and 88.97 % of respective basal and 77.44 % of respective basal and 143.24 % of respective basal
- DOPAC in dialysate, MEAN (T2 h 30-T3 h): 86.26 % of respective basal
- DOPAC in dialysate, individual animals (T2 h 30-T3 h): 68.83 % of respective basal and 76.04 % of respective basal and 88.98 % of respective basal and 94.72 % of respective basal and 88.97 % of respective basal and 81.12 % of respective basal and 86.11 % of respective basal and 108.52 % of respective basal
- DOPAC in dialysate, MEAN (T2 h-T2 h 30): 91.70 % of respective basal
- DOPAC in dialysate, individual animals (T2 h-T2 h 30): 100.58 % of respective basal and 87.15 % of respective basal and 91.10 % of respective basal and 94.66 % of respective basal and 82.72 % of respective basal and 76.32 % of respective basal and 84.28 % of respective basal and 120.05 % of respective basal
- DOPAC in dialysate, MEAN (T3 h 30-T4 h): 92.94 % of respective basal
- DOPAC in dialysate, individual animals (T3 h 30-T4 h): 98.62 % of respective basal and 88.8 % of respective basal and 84.72 % of respective basal and 92.54 % of respective basal and 81.68 % of respective basal and 80.31 % of respective basal and 88.84 % of respective basal and 131.20 % of respective basal
- DOPAC in dialysate, MEAN (T3 h-T3 h 30): 89.35 % of respective basal
- DOPAC in dialysate, individual animals (T3 h-T3 h 30): 108.36 % of respective basal and 74.94 % of respective basal and 89.42 % of respective basal and 83.63 % of respective basal and 84.95 % of respective basal and 77.32 % of respective basal and 85.84 % of respective basal and 113.17 % of respective basal
- DOPAC in dialysate, MEAN (T4 h 30-T5 h): 97.96 % of respective basal
- DOPAC in dialysate, individual animals (T4 h 30-T5 h): 118.57 % of respective basal and 89.81 % of respective basal and 82.60 % of respective basal and 77.02 % of respective basal and 90.64 % of respective basal and 94.78 % of respective basal and 95.64 % of respective basal and 137.22 % of respective basal
- DOPAC in dialysate, MEAN (T4 h-T4 h 30): 94.89 % of respective basal
- DOPAC in dialysate, individual animals (T4 h-T4 h 30): 107.03 % of respective basal and 83.51 % of respective basal and 92.76 % of respective basal and 82.75 % of respective basal and 83.92 % of respective basal and 79.63 % of respective basal and 104.47 % of respective basal and 127.87 % of respective basal
- DOPAC in dialysate, MEAN (T5 h 30-T6 h): 101.76 % of respective basal
- DOPAC in dialysate, individual animals (T5 h 30-T6 h): 132.77 % of respective basal and 85.32 % of respective basal and 85.38 % of respective basal and 97.98 % of respective basal and 88.27 % of respective basal and 108.01 % of respective basal and 92.66 % of respective basal and 127.03 % of respective basal
- DOPAC in dialysate, MEAN (T5 h-T5 h 30): 93.03 % of respective basal
- DOPAC in dialysate, individual animals (T5 h-T5 h 30): 75.53 % of respective basal and 93.40 % of respective basal and 85.99 % of respective basal and 86.97 % of respective basal and 95.22 % of respective basal and 104.27 % of respective basal and 122.75 % of respective basal
- DOPAC in dialysate, MEAN (T6 h 30-T7 h): 100.53 % of respective basal
- DOPAC in dialysate, individual animals (T6 h 30-T7 h): 119.00 % of respective basal and 87.46 % of respective basal and 83.16 % of respective basal and 92.30 % of respective basal and 79.40 % of respective basal
- DOPAC in dialysate, MEAN (T6 h-T6 h 30): 96.87 % of respective basal
- DOPAC in dialysate, individual animals (T6 h-T6 h 30): 117.46 % of respective basal and 79.52 % of respective basal and 81.29 % of respective basal and 39.89 % of respective basal and 77.98 % of respective basal and 106.17 % of respective basal and 94.72 % of respective basal and 131.51 % of respective basal
- DOPAC in dialysate, MEAN (T-30 min-T0 (pre-dose)): 96.20 % of respective basal
- DOPAC in dialysate, MEAN (T-1 h-T-30 min (pre-dose)): 98.03 % of respective basal
